Patent US20210348086A1, “COMPOSITION” (Conopco Inc., d/b/a UNILEVER, priority 2018, published 2021)

Test system: bacterial pool: Burkholderia cepacia, Pseudomonas aeruginosa, Psuedomonas putida, Acinetobacter lwoffii
Assay: Modified preservative challenge test (Ph. Eur. 5.1.3) in laundry liquid, Total Viable Count pour plate
Format: cell-based
Conditions: for Preservation of a laundry liquid composition (result in words): summary of the challenge test data set
Experimental: A modified challenge that complies with the current European Pharmacopoeia (Ph. Eur. Or EP) 5.1.3 criteria was performed on a subsample of both the unpreserved and each dosed product. The bacterial pool was added to each sample container at a ratio of 1:100. The final concentration of inoculum in the product should be between 5×10^5 and 5×10^6 CFU/G of test product. Each product is mixed with a sterile spatula to ensure a homogenous distribution of the inocula throughout the product. [table] Both the inoculum level and the level of microorganism within each sample was quantified using a Total Viable Count (TVC) pour plate method at 7, 14, 21 and 28 days. A 1:10 dilution was made with a subsample of each product, performed separately in Peptone (0.1%)/tween 80 (2%) neutralising agent. A 1:10 and 1:100 dilution of each subsample was performed and pour plates produced at each dilution using tryptone soya agar. Plates were incubated at 28° C. for 48 hours and then examined for growth. Visible colonies were counted with the aid of a Quebec Colony Counter and recorded for analysis against the challenge test criteria. During the removal of a subsample of product for TVC, a re-inoculation is performed at 7 and 14 days, reintroducing 5×10^6 CFU/G of bacteria before mixing using a sterile spatula to homogenise the re-inoculation.

[1] = 0.5% in Example 1 laundry liquid, 7 days
[2] = 0.5% in Example 1 laundry liquid, 14 days, re-inoculated at 7 days
[3] = 0.5% in Example 1 laundry liquid, 21 days, re-inoculated at 7 and 14 days
[4] = 0.5% in Example 1 laundry liquid, 28 days, re-inoculated at 7 and 14 days
[5] = 1.0% in Example 1 laundry liquid, 7 days
[6] = 1.0% in Example 1 laundry liquid, 14 days, re-inoculated at 7 days
[7] = 1.0% in Example 1 laundry liquid, 21 days, re-inoculated at 7 and 14 days
[8] = 1.0% in Example 1 laundry liquid, 28 days, re-inoculated at 7 and 14 days

Compound	Microbial Log reduction [1]	Microbial Log reduction [2]	Microbial Log reduction [3]	Microbial Log reduction [4]	Microbial Log reduction [5]	Microbial Log reduction [6]	Microbial Log reduction [7]	Microbial Log reduction [8]	Preservation of a laundry liquid composition (result in words)
O=C(O)CC(O)(CC(=O)O)C(=O)O [Citric acid]	>5.59	<2.54	<2.56	<2.56	>5.59	>5.54	>5.56	>5.56	not capable of effectively preserving a laundry liquid composition
C=C(CC(=O)O)C(=O)O [Itaconic acid]	>5.59	>5.54	>5.56	>5.56	>5.59	>5.54	>5.56	>5.56	effective preservative
CC(O)C(=O)O (stereo not drawn) [Lactic acid]	>5.59	2.32	<2.56	<2.56	>5.59	>5.54	>5.56	>5.56	not capable of effectively preserving a laundry liquid composition
